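Dose response: 5 concentrations. Exposure: 48 h. Format: 96-well plates. Endpoint: linear interpolation; highest concentration if not reached. GI50 marks 50% less growth.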 Active and inactive are the calls of the source. Rule as the data show it: active = GI50 up to about 1.1 µM and inactive = higher. Non-standard residues stand in square brackets, D forms with d. Residues, ends and D or L forms follow the SMILES beside them. ξ: configuration not given here. Pentanoyl(2-O,4-OH,5-Cl) = O=C(O)C(O)CC(O)CCl; Ile(3ξ) = CCC(C)[C@H](N)C(=O)O; NMeV = CN[C@H](C(=O)O)C(C)C; NMeA = CN[C@@H](C)C(=O)O; βAla = NCCC(=O)O
Legend:
Test in all cases: NCI-60 cell line screen, 48 h
CCRF-CEM = test system: CCRF-CEM
MDA-N = test system: MDA-N
COLO 205 = test system: COLO 205
MOLT-4 = test system: MOLT-4
HCC 2998 = test system: HCC 2998
NCI-H23 = test system: NCI-H23
UACC-257 = test system: UACC-257
MCF7 = test system: MCF7
U-251 = test system: U-251
OVCAR-8 = test system: OVCAR-8
MDA-MB-231 = test system: MDA-MB-231
DU-145 = test system: DU-145
SK-MEL-28 = test system: SK-MEL-28
HT-29 = test system: HT-29
SK-MEL-2 = test system: SK-MEL-2
HL-60 = test system: HL-60
OVCAR-3 = test system: OVCAR-3
EKVX = test system: EKVX
Malme-3M = test system: Malme-3M
KM12 = test system: KM12

| SMILES | GI50 (CCRF-CEM) | GI50 (MDA-N) | GI50 (COLO 205) | GI50 (MOLT-4) | GI50 (HCC 2998) | GI50 (NCI-H23) | GI50 (UACC-257) | GI50 (MCF7) | GI50 (U-251) | GI50 (OVCAR-8) | GI50 (MDA-MB-231) | GI50 (DU-145) | GI50 (SK-MEL-28) | GI50 (HT-29) | GI50 (SK-MEL-2) | GI50 (HL-60) | GI50 (OVCAR-3) | GI50 (EKVX) | GI50 (Malme-3M) | GI50 (KM12) |
| --- | --- | --- | --- | --- | --- | --- | --- | --- | --- | --- | --- | --- | --- | --- | --- | --- | --- | --- | --- | --- |
| CCOP(=O)(CN=C(c1ccccc1)c1ccccc1)OCC | > 100 µM (inactive) | > 100 µM (inactive) | > 100 µM (inactive) | > 100 µM (inactive) | > 100 µM (inactive) | > 100 µM (inactive) | > 100 µM (inactive) | > 100 µM (inactive) | > 100 µM (inactive) | > 100 µM (inactive) | > 100 µM (inactive) | > 100 µM (inactive) | > 100 µM (inactive) | > 100 µM (inactive) | > 100 µM (inactive) | 87.1 µM (inactive) | 63.2 µM (inactive) | – | – | – |
| CCCCN(C(=O)c1ccccc1)C1CCC(=O)c2[nH]c3ccccc3c21 (centres undefined) | 29.6 µM (inactive) | 50 µM (inactive) | 21 µM (inactive) | 32.8 µM (inactive) | 34.4 µM (inactive) | 62.4 µM (inactive) | 54 µM (inactive) | 27.4 µM (inactive) | 29.1 µM (inactive) | 45.8 µM (inactive) | 23.7 µM (inactive) | 75 µM (inactive) | 90.2 µM (inactive) | 20.5 µM (inactive) | – | 8.75 µM (inactive) | 64.7 µM (inactive) | 51.6 µM (inactive) | 55 µM (inactive) | 79.6 µM (inactive) |
| Cc1nn(C)c2c1C(=O)N(C)CC(=O)N2C | > 100 µM (inactive) | > 100 µM (inactive) | > 100 µM (inactive) | > 100 µM (inactive) | > 100 µM (inactive) | > 100 µM (inactive) | > 100 µM (inactive) | > 100 µM (inactive) | > 100 µM (inactive) | > 100 µM (inactive) | – | > 100 µM (inactive) | > 100 µM (inactive) | > 100 µM (inactive) | – | > 100 µM (inactive) | > 100 µM (inactive) | > 100 µM (inactive) | > 100 µM (inactive) | > 100 µM (inactive) |
| CCC(C)[C@@H]1NC(=O)[C@@H]2CCCN2C(=O)C(CC(O)CCl)OC(=O)CCNC(=O)[C@H](C)N(C)C(=O)[C@H](C(C)C)N(C)C1=O (some centres undefined) (cyclo([Ile(3ξ)][NMeV][NMeA][βAla][Pentanoyl(2-O,4-OH,5-Cl)]P)) | 0.483 µM (active) | > 100 µM (inactive) | 1.91 µM (inactive) | – | – | > 100 µM (inactive) | 2.46 µM (inactive) | > 39.8 µM (inactive) | > 29 µM (inactive) | > 100 µM (inactive) | > 47.5 µM (inactive) | > 100 µM (inactive) | – | 3.12 µM (inactive) | 0.347 µM (active) | 44.1 µM (inactive) | 17.9 µM (inactive) | > 100 µM (inactive) | 12.3 µM (inactive) | > 61.9 µM (inactive) |
| CC(C)(C)C1=C(Br)C(Br)(C(C)(C)C)OP1(=O)c1ccccc1 (centres undefined) | – | > 100 µM (inactive) | > 100 µM (inactive) | – | > 100 µM (inactive) | > 100 µM (inactive) | > 100 µM (inactive) | > 100 µM (inactive) | > 100 µM (inactive) | > 100 µM (inactive) | – | > 100 µM (inactive) | > 100 µM (inactive) | > 100 µM (inactive) | > 100 µM (inactive) | > 100 µM (inactive) | > 100 µM (inactive) | > 100 µM (inactive) | > 100 µM (inactive) | > 100 µM (inactive) |
| CC(=O)OC1(C)C=CC(=O)C=C1 | 44.1 µM (inactive) | 31.2 µM (inactive) | > 100 µM (inactive) | 30.3 µM (inactive) | > 100 µM (inactive) | 27.5 µM (inactive) | 17.1 µM (inactive) | 20.4 µM (inactive) | 13.3 µM (inactive) | 24.7 µM (inactive) | 24.2 µM (inactive) | 36.6 µM (inactive) | 23.6 µM (inactive) | 63.5 µM (inactive) | 28.2 µM (inactive) | 27.9 µM (inactive) | 51.8 µM (inactive) | 62.5 µM (inactive) | – | > 100 µM (inactive) |
| CC(C)(C)[Si](C)(C)OCC1OC(n2cc(F)c(=O)[nH]c2=O)CC1O[Si](C)(C)C(C)(C)C (centres undefined) | 4.17 µM (inactive) | 6.21 µM (inactive) | 4.25 µM (inactive) | 3.98 µM (inactive) | 1.72 µM (inactive) | 6.53 µM (inactive) | 4.02 µM (inactive) | 5.01 µM (inactive) | 8.65 µM (inactive) | 16.1 µM (inactive) | 7.5 µM (inactive) | 3.46 µM (inactive) | – | 7.19 µM (inactive) | 12.1 µM (inactive) | 3.78 µM (inactive) | 15.2 µM (inactive) | 8.04 µM (inactive) | 16.4 µM (inactive) | 4.19 µM (inactive) |
| Nc1ccc(N(S(=O)(=O)c2ccccc2)S(=O)(=O)c2ccccc2)c(Cl)c1 | – | 28.9 µM (inactive) | 21 µM (inactive) | 14.2 µM (inactive) | 18.5 µM (inactive) | 55.8 µM (inactive) | 34.3 µM (inactive) | 39.3 µM (inactive) | 39.3 µM (inactive) | 70.8 µM (inactive) | 98.2 µM (inactive) | 95.7 µM (inactive) | 68.9 µM (inactive) | 37.8 µM (inactive) | 31.3 µM (inactive) | – | – | 64.3 µM (inactive) | 42.5 µM (inactive) | 24.2 µM (inactive) |
| CC(=O)O[C@H]1C[C@@H](OC(C)=O)[C@@](C)(O)[C@@H]2[C@@H](OC(C)=O)[C@@]3(O)[C@H](/C=C(/CCl)[C@H]4O[C@H]4[C@@H](OC(C)=O)[C@@]12C)OC(=O)[C@@H]3C | 18.5 µM (inactive) | 12 µM (inactive) | > 25 µM (inactive) | > 25 µM (inactive) | > 25 µM (inactive) | > 25 µM (inactive) | > 25 µM (inactive) | – | > 25 µM (inactive) | > 25 µM (inactive) | > 25 µM (inactive) | > 25 µM (inactive) | 17.4 µM (inactive) | > 25 µM (inactive) | > 25 µM (inactive) | – | > 25 µM (inactive) | > 25 µM (inactive) | > 25 µM (inactive) | > 25 µM (inactive) |
| Cc1ccc(NC(=O)/C(=N/N(C)C)C(C2OC(=O)c3ccccc32)[N+](=O)[O-])cc1 (centres undefined) | > 100 µM (inactive) | > 100 µM (inactive) | – | > 100 µM (inactive) | > 100 µM (inactive) | > 100 µM (inactive) | > 100 µM (inactive) | > 100 µM (inactive) | > 100 µM (inactive) | > 100 µM (inactive) | > 100 µM (inactive) | – | > 100 µM (inactive) | > 100 µM (inactive) | > 100 µM (inactive) | > 100 µM (inactive) | > 100 µM (inactive) | – | – | > 100 µM (inactive) |
| CSc1ncnc2c1ncn2CCC#N | > 100 µM (inactive) | > 100 µM (inactive) | > 100 µM (inactive) | > 100 µM (inactive) | – | > 100 µM (inactive) | > 100 µM (inactive) | > 100 µM (inactive) | – | > 100 µM (inactive) | > 100 µM (inactive) | > 100 µM (inactive) | > 100 µM (inactive) | > 100 µM (inactive) | – | > 100 µM (inactive) | > 100 µM (inactive) | > 100 µM (inactive) | > 100 µM (inactive) | > 100 µM (inactive) |
| CCOC(=O)c1c[nH]c2cc3c(cc2c1=O)CCS3(=O)=O.CCOC(=O)c1c[nH]c2ccc3c(c2c1=O)S(=O)(=O)CC3 | > 100 µM (inactive) | – | > 100 µM (inactive) | > 100 µM (inactive) | > 100 µM (inactive) | > 100 µM (inactive) | > 100 µM (inactive) | 83.8 µM (inactive) | > 100 µM (inactive) | > 100 µM (inactive) | – | – | > 100 µM (inactive) | > 100 µM (inactive) | > 100 µM (inactive) | > 100 µM (inactive) | > 100 µM (inactive) | > 100 µM (inactive) | > 100 µM (inactive) | > 100 µM (inactive) |
| O=C1NC(=O)C(CCO)(c2ccccc2)C(=O)N1 | > 100 µM (inactive) | – | > 100 µM (inactive) | > 100 µM (inactive) | > 100 µM (inactive) | > 100 µM (inactive) | > 100 µM (inactive) | > 100 µM (inactive) | > 100 µM (inactive) | > 100 µM (inactive) | – | – | > 100 µM (inactive) | > 100 µM (inactive) | > 100 µM (inactive) | > 100 µM (inactive) | > 100 µM (inactive) | > 100 µM (inactive) | > 100 µM (inactive) | > 100 µM (inactive) |
| N#Cc1c(NC(=S)NC(=O)c2ccccc2)nc2c(c1-c1ccccc1)CCCC2 | > 100 µM (inactive) | > 100 µM (inactive) | > 100 µM (inactive) | > 100 µM (inactive) | – | > 100 µM (inactive) | > 100 µM (inactive) | 58.9 µM (inactive) | > 100 µM (inactive) | 36.6 µM (inactive) | 93.8 µM (inactive) | > 100 µM (inactive) | 78.7 µM (inactive) | > 100 µM (inactive) | – | > 100 µM (inactive) | > 100 µM (inactive) | – | > 10 µM (inactive) | > 100 µM (inactive) |
| CCC(=O)NC(NNS(=O)(=O)c1ccc(C)cc1)(C(F)(F)F)C(F)(F)F | 63.1 µM (inactive) | 18.5 µM (inactive) | > 100 µM (inactive) | 80 µM (inactive) | > 10 µM (inactive) | 48.9 µM (inactive) | 52 µM (inactive) | 76 µM (inactive) | > 10 µM (inactive) | 44.9 µM (inactive) | 30.8 µM (inactive) | > 100 µM (inactive) | 20.3 µM (inactive) | – | > 100 µM (inactive) | 46.6 µM (inactive) | > 10 µM (inactive) | > 100 µM (inactive) | 59.4 µM (inactive) | 54.1 µM (inactive) |

From ChEMBL document CHEMBL1201862, “PubChem BioAssay data set” (2004)
